From ChEMBL document CHEMBL5543140 (J Med Chem, 2024)
Calls of active or inactive are those of the source. The rule behind the calls is not given here.

Assays:
Hippocampus [1] = experiment: Induction of neuroplasticity in C57BL/6J mouse assessed as increase in SYN1 mRNA expression in brain hippocampus at 3 mg/kg, sc single dose by RT-PCR analysis; type: functional, organism-based
Mus musculus [2] = experiment: Induction of neuroplasticity in C57BL/6J mouse assessed as increase in c-Fos mRNA expression in brain frontal cortex at 3 mg/kg, sc single dose by RT-PCR analysis; type: functional, organism-based
[3] = Ex vivo binding in C57BL/6J mouse brain frontal cortex assessed as specific binding [3H]Cimbi-36 at 1 mg/kg, sc measured after 10 mins by liquid scintillation counting analysis (reference value: 1092 +/- 53); type: functional
Mus musculus [4] = experiment: Induction of neuroplasticity in C57BL/6J mouse assessed as increase in EGR2 mRNA expression in brain frontal cortex at 3 mg/kg, sc single dose by RT-PCR analysis; type: functional, organism-based
[5] = Oral bioavailability in beagle dog at 2 mg/kg measured upto 24 hrs; type: ADME, organism-based, Canis lupus familiaris; conditions: in vivo
[6] = AUClast in male Sprague-Dawley rat CSF at 1 mg/kg, iv measured upto 8 hrs by LC-MS/MS analysis; type: ADME, organism-based, Cerebrospinal fluid
Hippocampus [7] = experiment: Induction of neuroplasticity in C57BL/6J mouse assessed as increase in SYN1 mRNA expression in brain hippocampus at 0.3 mg/kg, sc single dose by RT-PCR analysis; type: functional, organism-based
[8] = biological target: Alpha-2B adrenergic receptor (Homo sapiens, UniProt P18089); experiment: biochemical; type: cell-based, CHO-K1
Alpha-2B adrenergic receptor, sequence (P18089 whole entry): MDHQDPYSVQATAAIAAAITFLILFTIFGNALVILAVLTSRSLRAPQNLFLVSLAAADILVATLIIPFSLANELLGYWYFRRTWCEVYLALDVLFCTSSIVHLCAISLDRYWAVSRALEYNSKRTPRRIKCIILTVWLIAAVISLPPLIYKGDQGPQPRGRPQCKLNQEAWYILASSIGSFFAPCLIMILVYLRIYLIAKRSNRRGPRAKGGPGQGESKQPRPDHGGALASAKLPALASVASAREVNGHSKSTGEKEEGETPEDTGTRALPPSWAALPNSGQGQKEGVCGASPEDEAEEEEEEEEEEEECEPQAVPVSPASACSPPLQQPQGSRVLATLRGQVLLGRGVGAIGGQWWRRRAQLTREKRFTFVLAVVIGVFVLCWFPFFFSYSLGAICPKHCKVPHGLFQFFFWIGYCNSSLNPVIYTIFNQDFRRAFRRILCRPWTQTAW

[9] = biological target: 5-hydroxytryptamine receptor 1B (Homo sapiens, UniProt P28222); experiment: Displacement of [3H]5-CT from 5-HT1B receptor (unknown origin) assessed as inhibition binding
5-hydroxytryptamine receptor 1B, sequence (P28222 whole entry): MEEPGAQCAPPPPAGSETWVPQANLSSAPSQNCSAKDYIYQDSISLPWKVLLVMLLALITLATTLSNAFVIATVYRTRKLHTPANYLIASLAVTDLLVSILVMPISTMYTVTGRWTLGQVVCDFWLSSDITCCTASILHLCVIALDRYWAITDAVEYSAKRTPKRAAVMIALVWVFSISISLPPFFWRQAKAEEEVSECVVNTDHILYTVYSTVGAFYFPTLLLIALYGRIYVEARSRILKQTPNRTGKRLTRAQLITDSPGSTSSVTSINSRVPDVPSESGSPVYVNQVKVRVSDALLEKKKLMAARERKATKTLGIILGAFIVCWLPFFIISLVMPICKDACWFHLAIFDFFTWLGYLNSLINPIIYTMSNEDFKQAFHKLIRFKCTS

Mus musculus [10] = experiment: Psychedelic effect in C57BL/6J mouse assessed as head-twitch responses reversibility by visual observation at 3 mg/kg, sc once a day for 3 days following treatment free for 48 hrs followed by redosed at 3 mg/kg, sc; type: functional, organism-based; conditions: time 3.0 day
[11] = Volume of distribution at steady state in beagle dog at 0.4 mg/kg, iv measured upto 24 hrs; type: ADME, organism-based, Canis lupus familiaris; conditions: in vivo, read-out: Vdss
Brain = experiment: Drug binding in male Sprague-Dawley rat brain homogenate at 1 mg/kg, iv measured upto 8 hrs by LC-MS/MS analysis; type: ADME, organism-based; conditions: in vivo
Mus musculus [12] = experiment: Psychedelic effect in C57BL/6J mouse assessed as number of 5-HT2A receptor dependent head-twitch responses by visual observation at 3 mg/kg, sc in presence of ketanserin 1 mg/kg, sc measured after 24 hrs; type: functional
[13] = MRTinf in male Sprague-Dawley rat brain at 1 mg/kg, iv measured upto 8 hrs by LC-MS/MS analysis; type: ADME, organism-based
[14] = Brain to plasma ratio in male Sprague-Dawley rat at 1 mg/kg, iv measured upto 8 hrs by LC-MS/MS analysis; type: ADME, organism-based; conditions: brain and plasma, read-out: BPR
Hippocampus [15] = experiment: Induction of neuroplasticity in C57BL/6J mouse assessed as increase in mTOR mRNA expression in brain hippocampus at 3 mg/kg, sc single dose by RT-PCR analysis; type: functional, organism-based
[16] = Cmax in male Sprague-Dawley rat plasma at 1 mg/kg, iv measured upto 8 hrs by LC-MS/MS analysis; type: ADME, organism-based
Hippocampus [17] = experiment: Induction of neuroplasticity in C57BL/6J mouse assessed as increase in CREB1 mRNA expression in brain hippocampus at 3 mg/kg, sc single dose by RT-PCR analysis; type: functional, organism-based
[18] = Half life in Wistar rat brain at 5 mg/kg, po measured upto 48 hrs; type: ADME, organism-based
[19] = AUClast in Wistar rat plasma at 5 mg/kg, po measured upto 48 hrs; type: ADME, organism-based
Mus musculus [20] = experiment: Induction of neuroplasticity in C57BL/6J mouse assessed as increase in Homer1 mRNA expression in brain frontal cortex at 3 mg/kg, sc single dose by RT-PCR analysis; type: functional, organism-based
Hippocampus [21] = experiment: Induction of neuroplasticity in C57BL/6J mouse assessed as increase in Homer 1 mRNA expression in brain hippocampus at 3 mg/kg, sc single dose by RT-PCR analysis; type: functional, organism-based

## COc1cc([Se]C(F)(F)F)c(OC)cc1CCN.Cl
Hippocampus [1]
  Activity: inactive
Mus musculus [2]
  Activity: Active
[3]
  Activity: 993
Mus musculus [4]
  Activity: Active
[5]
  bioavailability: 138%
[6]
  AUC(0-t) at 8 h: 49.9 ng·h/mL
Hippocampus [7]
  Activity: inactive
[8]
  Ki: 1050 nM
[9]
  Ki: 949 nM
Mus musculus [10]
  Activity: Active
[11]
  Vd: 5.29 L/kg
Brain
  Activity: > 98%
Mus musculus [12]
  Activity: 0.17
[13]
  MRT inf: 1.98 h
[14]
  Kp at 8 h: 15.6
Hippocampus [15]
  Activity: inactive
[16]
  Cmax: 250 ng/mL
Hippocampus [17]
  Activity: inactive
[18]
  half-life: 283 min
[19]
  AUC(0-t) at 48 h: 40.3 ng·h/mL
Mus musculus [20]
  Activity: Active
Hippocampus [21]
  Activity: inactive
